Assay results reported in US4118561A, “7-(Substituted)-7H-pyrrolo[3,2-f]quinazoline-1,3-diamines” (priority 1977, dated 1978).
≈ marks a conversion by molar mass, not a printed value. Where two headings read alike, the source gives them in different places.

What was measured:
K. pneumoniae 10031 = experiment: In vitro antibacterial activity (MIC), K. pneumoniae 10031; details: Klebsiella pneumoniae, 10031, 18 h
P. vulgaris 6896 = experiment: In vitro antibacterial activity (MIC), P. vulgaris 6896; details: Proteus vulgaris, 6896, 18 h
S. paratyphi 11737 = experiment: In vitro antibacterial activity (MIC), S. paratyphi 11737; type: cell-based; details: Salmonella enterica, 18 h
S. aureus Smith = experiment: In vitro antibacterial activity (MIC), S. aureus Smith; details: Staphylococcus aureus, 18 h
S. aureus 53-180 = experiment: In vitro antibacterial activity (MIC), S. aureus 53-180; details: Staphylococcus aureus, 53180, 18 h
[1] = tested on: lymphocytic leukemia P-388; experiment: Activity in mice against lymphocytic leukemia P-388; type: in vivo; details: Mus musculus, P388, ip, read-out: T/C
E. coli 9637 = experiment: In vitro antibacterial activity (MIC), E. coli 9637; details: Escherichia coli, 9637, 18 h
[2] = Antimalarial blood schizonticidal test in mice; type: in vivo, Plasmodium berghei (infected ICR/HA Swiss mice); parameters: ΔMST (increase in mean survival time): unit: days; details: mouse, in vivo, sc, single dose, infected mice; highest dose with no deaths for any reason; read-out: Highest Non-Lethal Dose
From the text: (§1) In addition, the invention provides compounds which have antimalarial activity in vivo as evidenced by a standard blood schizonticidal test in mice infected with Plasmodium berghei KBG 173.
(§2) Utilizing young ICR/HA Swiss mice and a standard inoculum of Plasmodium berghei KBG 173, it is possible to produce a uniform disease fatal to 100% of untreated animals within 6 to 8 days with a mean survival time of 6.2 days. Test animals weigh from 18 to 22 grams but weight variations in any given experimental or control group are confined to 2-3 grams. All animals in any given test are approximately of the same age. Animals on test are housed in metal-topped plastic cages, given a standard laboratory diet and water ad libitum.
(§3) Test animals receive an intraperitoneal injection of 0.5 ml. of 1:100 dilution of heparinized heart's blood with a minimum of 90% parasitized cells (4 × 10^7 cells), drawn from donor mice infected one week earlier with Plasmodium berghei. The donor strain is maintained by weekly passages in separate groups of mice inoculated with a 0.5 ml. of 1:500 dilution of heparinized heart's blood.
(§4) Test compounds are administered after dissolution or suspension in peanut oil. A single dose is given subcutaneously 72 hours after the mice are infected with Plasmodium berghei. At this time a 10-15 percent parasitemia has developed; the disease is well established but has not produced sufficient debility to alter the response of the host to toxic effects of the drug on test. Since treatment is withheld for three days to permit the infection to become well established and death occurs in untreated controls within 6-8 days, it is felt that this system presents a candidate compound with the maximum challenge. In order to check factors such as changes in the infectivity of Plasmodium berghei or in the susceptibility of the host or to detect technical errors, a group of infected animals treated with pyrimethamine at dose levels producing definite increases in survival time is included in a positive control in every experiment.
(§5) In each experiment test compounds are administered in graded dosages. […] However, if an active drug is toxic for the host, its toxicity may become a limiting factor; continued increases in dose levels also increase the toxic effects and may result in the diminution of survival times. Deaths prior to the sixth day, when untreated controls begin to die, are regarded as nonparasitic and become the basis for toxicity evaluations. […] In calculating mean survival time, toxic deaths and 60-day survivors are not included.
(§6) Compounds are considered active which produce a cure in at least one test animal or which produce significant increases in mean survival times of the treated animals as compared with the mean survival times of untreated controls, provided that no drug related deaths (toxicity) are noted at the active dose.

[3] = tested on: Plasmodium berghei KBG 173; experiment: Antimalarial blood schizonticidal test in mice; type: in vivo, Plasmodium berghei (infected ICR/HA Swiss mice); parameters: ΔMST (increase in mean survival time): unit: days; details: for ED100 / minimal effective dose: Plasmodium berghei, sc, 1440 h; for ED100: read-out: Lowest Dose Curing All Mice; for minimal effective dose: read-out: Min. Curing Dose; for Cure/Treat at Min. Curing Dose: at the Min. Curing Dose
From the text: as §1, §2, §3, §4, §5, §6

N. catarrhalis 8193 = experiment: In vitro antibacterial activity (MIC), N. catarrhalis 8193; details: 18 h
[4] = s.c., single dose, 60-day survivors

With `Nc1nc(N)c2c(ccc3c2ccn3Cc2ccccn2)n1` [Example 43] the MIC (K. pneumoniae 10031) was 0.061 µg/mL (≈ 0.21 µM), the MIC (P. vulgaris 6896) was 0.244 µg/mL (≈ 0.84 µM) and the MIC (S. paratyphi 11737) was 0.244 µg/mL (≈ 0.84 µM). For the same molecule, the MIC (S. aureus Smith) was 0.976 µg/mL (≈ 3.36 µM), the MIC (S. aureus 53-180) was 0.488 µg/mL (≈ 1.68 µM) and the response vs control in vivo at 20 mg/kg [1] was 146%. For the same molecule, the MIC (E. coli 9637) was 0.488 µg/mL (≈ 1.68 µM), the MTD [2] was 80 mg/kg and the ED100 [3, 4] was 80 mg/kg. For the same molecule, the minimal effective dose [3, 4] was 20 mg/kg, the “Cure/Treat at Min. Curing Dose” value ([3]; s.c., 60-day survivors) was 2/5 and the “ΔMST (increase in mean survival time)” value ([3]; s.c., dose 20 mg. per kg.) was 11.6. The MIC (N. catarrhalis 8193) was under 0.0009 µg/mL.

For `Cc1ccc(Cn2ccc3c4c(N)nc(N)nc4ccc32)cc1` [Example 21], the MIC (K. pneumoniae 10031) was 0.122 µg/mL (≈ 0.402 µM), the MIC (P. vulgaris 6896) was 1.95 µg/mL (≈ 6.43 µM) and the MIC (S. paratyphi 11737) was 1.95 µg/mL (≈ 6.43 µM). It also gave an MIC (S. aureus Smith) of 0.976 µg/mL (≈ 3.22 µM), an MIC (S. aureus 53-180) of 0.488 µg/mL (≈ 1.61 µM) and a response vs control in vivo at 10 mg/kg [1] of 138%. For the same molecule, the MIC (E. coli 9637) was 0.976 µg/mL (≈ 3.22 µM), the MTD [2] was 160 mg/kg and the ED100 [3, 4] was 20 mg/kg. For the same molecule, the minimal effective dose [3, 4] was 10 mg/kg, the “Cure/Treat at Min. Curing Dose” value ([3]; s.c., 60-day survivors) was 2/5 and the “ΔMST (increase in mean survival time)” value ([3]; s.c., dose 5 mg. per kg.) was 7.5. It also gave an MIC (N. catarrhalis 8193) of 0.0152 µg/mL (≈ 0.0501 µM).

Work on `Nc1cccc(Cn2ccc3c4c(N)nc(N)nc4ccc32)c1` [Example 62, 7-[(3-Aminophenyl)methyl]-7H-pyrrolo[3,2-f]quinazoline-1,3-diamine] yielded an MIC (K. pneumoniae 10031) of 0.122 µg/mL (≈ 0.401 µM), an MIC (P. vulgaris 6896) of 1.95 µg/mL (≈ 6.41 µM) and an MIC (S. paratyphi 11737) of 0.976 µg/mL (≈ 3.21 µM). For the same molecule, the MIC (S. aureus Smith) was 0.488 µg/mL (≈ 1.6 µM), the MIC (S. aureus 53-180) was 0.244 µg/mL (≈ 0.802 µM) and the response vs control in vivo at 10 mg/kg ([1]; mice, I.P., 10 mg/kg) was 165%. The MIC (E. coli 9637) was 0.244 µg/mL (≈ 0.802 µM), the MTD [2] was 80 mg/kg and the ED100 [3, 4] was 20 mg/kg. For the same molecule, the minimal effective dose [3, 4] was 5 mg/kg, the “Cure/Treat at Min. Curing Dose” value ([3]; s.c., 60-day survivors) was 3/5 and the “ΔMST (increase in mean survival time)” value ([3]; s.c., dose 1.25 mg. per kg.) was 7.8. For the same molecule, the MIC (N. catarrhalis 8193) was 0.061 µg/mL (≈ 0.2 µM).

`COc1cc(Cn2ccc3c4c(N)nc(N)nc4ccc32)cc(OC)c1OC` [Example 39] showed an MIC (K. pneumoniae 10031) of 0.122 µg/mL (≈ 0.322 µM), an MIC (P. vulgaris 6896) of 7.81 µg/mL (≈ 20.6 µM) and an MIC (S. paratyphi 11737) of 3.9 µg/mL (≈ 10.3 µM). It also gave an MIC (S. aureus Smith) of 0.122 µg/mL (≈ 0.322 µM), an MIC (S. aureus 53-180) of 0.061 µg/mL (≈ 0.161 µM) and a response vs control in vivo at 10 mg/kg [1] of 163%. It also gave an MIC (E. coli 9637) of 0.976 µg/mL (≈ 2.57 µM), an MTD [2] of 160 mg/kg and an ED100 [3] of 160 mg/kg. For the same molecule, the minimal effective dose [3] was 40 mg/kg, the “Cure/Treat at Min. Curing Dose” value ([3]; s.c., 60-day survivors) was 2/5 and the “ΔMST (increase in mean survival time)” value ([3]; s.c., dose 20 mg. per kg.) was 7.1. For the same molecule, the MIC (N. catarrhalis 8193) was 0.0152 µg/mL (≈ 0.0401 µM).

In the case of `CC(C)(C)c1ccc(Cn2ccc3c4c(N)nc(N)nc4ccc32)cc1` [Example 30], the MIC (K. pneumoniae 10031) is reported as 3.9 µg/mL (≈ 11.3 µM), the MIC (P. vulgaris 6896) is reported as over 250 µg/mL and the MIC (S. paratyphi 11737) is reported as over 250 µg/mL. The MIC (S. aureus Smith) was 7.81 µg/mL (≈ 22.6 µM), the MIC (S. aureus 53-180) was 3.9 µg/mL (≈ 11.3 µM) and the response vs control in vivo at 5 mg/kg ([1]; mice, I.P., 5 mg/kg) was 125%. It also gave an MIC (E. coli 9637) of 250 µg/mL (≈ 724 µM) and an MIC (N. catarrhalis 8193) of 0.976 µg/mL (≈ 2.83 µM).

`CCOC(=O)c1ccc(Cn2ccc3c4c(N)nc(N)nc4ccc32)cc1` [Example 17] gave an MIC (K. pneumoniae 10031) of 1.95 µg/mL (≈ 5.4 µM), an MIC (P. vulgaris 6896) of over 250 µg/mL and an MIC (S. paratyphi 11737) of over 250 µg/mL. It also gave an MIC (S. aureus Smith) of 1.95 µg/mL (≈ 5.4 µM), an MIC (S. aureus 53-180) of 1.95 µg/mL (≈ 5.4 µM) and a response vs control in vivo at 10 mg/kg ([1]; mice, I.P., 10 mg/kg) of 141%. It also gave an MIC (E. coli 9637) of 7.81 µg/mL (≈ 21.6 µM), an MTD [2] of 80 mg/kg and an ED100 [3, 4] of 20 mg/kg. For the same molecule, the minimal effective dose [3, 4] was 10 mg/kg, the “Cure/Treat at Min. Curing Dose” value ([3]; s.c., 60-day survivors) was 1/5 and the “ΔMST (increase in mean survival time)” value ([3]; s.c., dose 2.5 mg. per kg.) was 6.0. The MIC (N. catarrhalis 8193) was 0.488 µg/mL (≈ 1.35 µM).

`COc1ccc(Cn2ccc3c4c(N)nc(N)nc4ccc32)cc1OC` [Example 37] showed an MIC (K. pneumoniae 10031) of 0.061 µg/mL (≈ 0.175 µM), an MIC (P. vulgaris 6896) of 1.95 µg/mL (≈ 5.58 µM) and an MIC (S. paratyphi 11737) of 1.95 µg/mL (≈ 5.58 µM). The MIC (S. aureus Smith) was 0.244 µg/mL (≈ 0.698 µM), the MIC (S. aureus 53-180) was 0.122 µg/mL (≈ 0.349 µM) and the response vs control in vivo at 10 mg/kg ([1]; mice, I.P., 10 mg/kg) was 174%. It also gave an MIC (E. coli 9637) of 0.488 µg/mL (≈ 1.4 µM), an MTD [2] of 80 mg/kg and an ED100 [3, 4] of 20 mg/kg. The minimal effective dose [3, 4] was 10 mg/kg, the “Cure/Treat at Min. Curing Dose” value ([3]; s.c., 60-day survivors) was 1/5 and the “ΔMST (increase in mean survival time)” value ([3]; s.c., dose 2.5 mg. per kg.) was 6.9. The MIC (N. catarrhalis 8193) was 0.0152 µg/mL (≈ 0.0435 µM).
